Measured values reported in ChEMBL document CHEMBL4304789, “Design, Synthesis, and Biological Evaluation of 2,4-Imidazolinedione Derivatives as HDAC6 Isoform-Selective Inhibitors” (ACS Med Chem Lett, 2019).
Calls of active or inactive are those of the source. The rule behind the calls is not given here.

target: T1, Protein deacetylase HDAC6 (Homo sapiens, UniProt Q9UBN7); assay: Inhibition of HDAC6 (unknown origin) using Ac-LeuGlyLys(Ac)-AMC as substrate preincubated for 5 mins followed by substrate addition and measured after 60 mins by fluorescence based assay; conditions: not given
T1 sequence (Q9UBN7 whole entry): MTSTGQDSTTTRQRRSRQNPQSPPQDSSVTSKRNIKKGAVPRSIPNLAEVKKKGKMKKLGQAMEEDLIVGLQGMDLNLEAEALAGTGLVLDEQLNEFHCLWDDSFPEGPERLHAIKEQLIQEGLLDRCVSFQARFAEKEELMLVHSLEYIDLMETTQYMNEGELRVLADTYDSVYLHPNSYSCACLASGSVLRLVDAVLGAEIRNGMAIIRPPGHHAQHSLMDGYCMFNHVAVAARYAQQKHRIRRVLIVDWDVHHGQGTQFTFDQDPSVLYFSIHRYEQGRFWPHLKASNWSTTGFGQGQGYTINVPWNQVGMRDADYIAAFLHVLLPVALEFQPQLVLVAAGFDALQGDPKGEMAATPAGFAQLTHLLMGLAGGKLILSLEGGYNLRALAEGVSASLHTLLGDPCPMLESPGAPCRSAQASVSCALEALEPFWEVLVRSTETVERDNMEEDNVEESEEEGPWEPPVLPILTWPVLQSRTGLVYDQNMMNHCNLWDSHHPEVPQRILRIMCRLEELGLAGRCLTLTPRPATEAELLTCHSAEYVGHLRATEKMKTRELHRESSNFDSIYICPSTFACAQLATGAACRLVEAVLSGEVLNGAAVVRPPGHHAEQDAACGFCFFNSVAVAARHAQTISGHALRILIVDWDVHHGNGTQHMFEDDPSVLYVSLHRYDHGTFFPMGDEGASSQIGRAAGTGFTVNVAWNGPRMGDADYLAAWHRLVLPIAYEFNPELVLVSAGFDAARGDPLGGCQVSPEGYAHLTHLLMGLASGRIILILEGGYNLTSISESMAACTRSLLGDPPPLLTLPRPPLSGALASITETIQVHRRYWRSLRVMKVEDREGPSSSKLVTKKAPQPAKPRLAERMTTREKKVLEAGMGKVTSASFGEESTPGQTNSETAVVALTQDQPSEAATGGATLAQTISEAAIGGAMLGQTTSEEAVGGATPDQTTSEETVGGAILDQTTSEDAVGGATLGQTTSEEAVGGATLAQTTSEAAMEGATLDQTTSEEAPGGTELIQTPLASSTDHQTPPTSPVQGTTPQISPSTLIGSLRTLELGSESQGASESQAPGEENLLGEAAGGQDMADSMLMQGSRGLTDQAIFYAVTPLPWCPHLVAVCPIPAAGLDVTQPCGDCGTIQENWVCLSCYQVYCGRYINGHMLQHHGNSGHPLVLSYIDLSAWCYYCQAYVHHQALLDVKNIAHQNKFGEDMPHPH

| SMILES | IC50 [nM] |
| --- | --- |
| CCCN1C(=O)N(C2CCCCC2)C(=O)C1CCC(=O)Nc1ccc(C(=O)NO)cc1 (centres undefined) | > 40 |
| CCCN1C(=O)N(c2ccc(Cl)cc2)C(=O)C1CCC(=O)Nc1ccc(C(=O)NO)cc1 (centres undefined) | 12.6 |
| Cc1ccc(CN2C(=O)N(C3CCCCC3)C(=O)C2CCC(=O)Nc2ccc(C(=O)NO)cc2)cc1 (centres undefined) | 10.3 |
| O=C(CCC1C(=O)N(Cc2ccccc2)C(=O)N1Cc1ccc(Br)cc1)Nc1ccc(C(=O)NO)cc1 (centres undefined) | 9.8 |
| CN1C(=O)N(c2ccc(Cl)cc2)C(=O)C1CCC(=O)Nc1ccc(C(=O)NO)cc1 (centres undefined) | 7 |
| Cc1ccc(CN2C(=O)N(C3CCCCC3)C(=O)C2CCC(=O)NCc2ccc(C(=O)NO)cc2)cc1 (centres undefined) | 17 |
| Cc1ccc(CN2C(=O)N(c3ccc(Cl)cc3)C(=O)C2CCC(=O)Nc2cccc(C(=O)NO)c2)cc1 (centres undefined) | > 40 |

The next lines start with the values.

| IC50 [nM] | SMILES |
| --- | --- |
| 12.7 | O=C(CCC1C(=O)N(c2ccc(Cl)cc2)C(=O)N1Cc1ccccc1)NCc1ccc(C(=O)NO)cc1 (centres undefined) |
| 13.6 | O=C(CCC1C(=O)N(c2ccccc2)C(=O)N1Cc1ccc(Br)cc1)NCc1ccc(C(=O)NO)cc1 (centres undefined) |
| 18.9 | Cc1ccc(CN2C(=O)N(c3ccc(Cl)cc3)C(=O)C2CCC(=O)NCc2ccc(C(=O)NO)cc2)cc1 (centres undefined) |
| > 40 | O=C(CCC1C(=O)N(c2ccc(Cl)cc2)C(=O)N1Cc1ccccc1)Nc1cccc(C(=O)NO)c1 (centres undefined) |
| 16.5 | O=C(CCC1C(=O)N(c2ccc(Cl)cc2)C(=O)N1Cc1ccc(Br)cc1)NCc1ccc(C(=O)NO)cc1 (centres undefined) |
| 11.8 | CN1C(=O)N(c2ccc(Cl)cc2)C(=O)C1CCC(=O)NCc1ccc(C(=O)NO)cc1 (centres undefined) |

target: Histone deacetylase (Homo sapiens) (UniProt Q13547+O15379+Q9UBN7+Q92769+Q9UQL6+Q8WUI4+Q9BY41+Q96DB2+P56524+Q9UKV0+Q969S8); conditions: at 0.08 to 1.6 µM
Description: Inhibition of HDAC in human HL60 cells assessed as increase in acetylation of H3 at 0.08 to 1.6 uM incubated for 24 hrs by western blot analysis

| inhibition | SMILES |
| --- | --- |
| Active | O=C(CCCCCCNC(=O)c1cnc(N(c2ccccc2)c2ccccc2)nc1)NO |
